A word on the logP: it is the decadic logarithm of the partition coefficient of the neutral form, usually between octanol and water. Higher therefore signals a more lipophilic compound. `CCN1CCCC1CNC(=O)c1cc(S(=O)(=O)CC)c(N)cc1OC` (stereo unspecified): the logP came out at 2.42. As for `COc1cc(C(=O)NCc2ccc(OCCN(C)C)cc2)cc(OC)c1OC`, the figure is 2.04; as for `O=c1[nH]c2ccccc2n1C1CCN(CCCC(c2ccc(F)cc2)c2ccc(F)cc2)CC1`, 6.06.

`COc1ccc(S(N)(=O)=O)cc1C(=O)NCC1CCCN1Cc1ccc(F)cc1` (stereo unspecified) gave a logP of 2.08. Under `NC(=O)C1(N2CCCCC2)CCN(CCCC(=O)c2ccc(F)cc2)CC1` stands 2.68; under `COc1ccc(S(N)(=O)=O)cc1C(=O)NCC1CCCN1C` (stereo unspecified), 1.01; under `C=CCN1CCCC1CNC(=O)c1cc2[nH]nnc2cc1OC` (stereo unspecified), 2.22.

With `O=C(NCCN1CCC(n2c(=O)[nH]c3cc(Cl)ccc32)CC1)c1ccc(F)cc1`, the logP was determined as 4.02. As for `OCCN1CCN(CCCN2c3ccccc3Sc3ccc(C(F)(F)F)cc32)CC1`, the figure is 4.55; as for `COc1cccc(C(=O)NC2C[C@H]3CC[C@@H](C2)N3Cc2ccccc2)c1OC` (stereo partly specified), 3.07. In turn, `CCN1CCCC1CNC(=O)c1cc(S(=O)(=O)CC)ccc1OC` (stereo unspecified) showed a lipophilicity (logP) of 2.05.

Source of the values: the SangsterLogP compilation.
